Key:
Format in all cases: in vivo
rice (Oryza sativa) = experiment: Test B flooded paddy test, visual plant response rating 0-100; conditions: 250 g ai/ha, Flood, applied to paddy water, evaluated after 13 days
Method in brief: (§1)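 Treatment occurs at the 2-leaf stage by adding compound to floodwater standing 3 cm above the soil, a level kept for the whole test. Plants stay in the greenhouse 13 days before visual comparison with controls.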

[1] = test system: barnyardgrass (Echinochloa crusgalli); experiment: as above; conditions: 250 g ai/ha, Flood, applied to paddy water, evaluated after 13 days
Method in brief: as §1

[2] = test system: ducksalad (Heteranthera limosa); experiment: as above; conditions: 250 g ai/ha, Flood, applied to paddy water, evaluated after 13 days
Method in brief: as §1

[3] = test system: sedge, umbrella (small-flower umbrella sedge, Cyperus difformis); experiment: as above; conditions: 250 g ai/ha, Flood, applied to paddy water, evaluated after 13 days
Method in brief: as §1

[4] = test system: palmer (palmer amaranth, palmer pigweed, Amaranthus palmeri); experiment: Test A postemergence application, visual injury rating 0-100
Method in brief: (§2)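 Plants were grown in a loam soil-sand blend and treated with test chemical in a non-phytotoxic solvent mixture containing surfactant, either sprayed on soil preemergence or applied postemergence to 2-10 cm plants. After 10 days in a greenhouse, injury was scored visually against untreated controls, 0 meaning no effect and 100 complete control.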

[5] = test system: ragweed (common ragweed, Ambrosia artemisiifolia); experiment: as above
Method in brief: as §2

[6] = test system: horseweed (Erigeron canadensis); experiment: as above
Method in brief: as §2

[7] = test system: blackgrass (Alopecurus myosuroides); experiment: as above
Method in brief: as §2

kochia (Bassia scoparia) [8] = experiment: as above
Method in brief: as §2

[9] = test system: wheat (Triticum aestivum); experiment: as above
Method in brief: as §2

corn (Zea mays) [10] = experiment: as above
Method in brief: as §2

[11] = test system: ryegrass, Italian (italian ryegrass, Lolium multiflorum); experiment: as above
Method in brief: as §2

[12] = test system: oat, wild (wild oat, Avena fatua); experiment: as above
Method in brief: as §2

[13] = test system: green foxtail (Setaria viridis); experiment: as above
Method in brief: as §2

[14] = test system: barnyardgrass (Echinochloa crus-galli); experiment: as above
Method in brief: as §2

soybean (Glycine max) [15] = experiment: as above
Method in brief: as §2

[16] = test system: palmer (palmer amaranth, palmer pigweed, Amaranthus palmeri); experiment: Test A preemergence soil spray, visual injury rating 0-100; conditions: 10 days
Method in brief: as §2

[17] = test system: ragweed (common ragweed, Ambrosia artemisiifolia); experiment: as above; conditions: 10 days
Method in brief: as §2

[18] = test system: blackgrass (Alopecurus myosuroides); experiment: as above; conditions: 10 days
Method in brief: as §2

kochia (Bassia scoparia) [19] = experiment: as above; conditions: 10 days
Method in brief: as §2

[20] = test system: wheat (Triticum aestivum); experiment: as above; conditions: 10 days
Method in brief: as §2

corn (Zea mays) [21] = experiment: as above; conditions: 10 days
Method in brief: as §2

[22] = test system: ryegrass, Italian (italian ryegrass, Lolium multiflorum); experiment: as above; conditions: 10 days
Method in brief: as §2

[23] = test system: oat, wild (wild oat, Avena fatua); experiment: as above; conditions: 10 days
Method in brief: as §2

[24] = test system: green foxtail (Setaria viridis); experiment: as above; conditions: 10 days
Method in brief: as §2

[25] = test system: barnyardgrass (Echinochloa crus-galli); experiment: as above; conditions: 10 days
Method in brief: as §2

soybean (Glycine max) [26] = experiment: as above; conditions: 10 days
Method in brief: as §2

[27] = 62 g ai/ha, postemergence, 10 days, 0 = no effect, 100 = complete control
[28] = Postemergence, 16 g ai/ha, greenhouse 10 days, 0 no effect, 100 complete control
[29] = 62 g ai/ha, 0 = no effect, 100 = complete control

COC(=O)COC(=O)C1=CCC(NC(=O)C2(C)CN(c3cc(Cl)cc(Cl)c3)C(=O)O2)C1 (centres unmarked) [Compound 110]
80: Ragweed plant response rating (0-100) [5, 27] | Horseweed plant response rating (0-100) [6, 27] | Blackgrass plant response rating (0 to 100 scale) [7, 28] | Pigweed, Palmer plant response rating ([16]; 16 g ai/ha, 0 to 100 scale) | Wheat plant response rating (0-100) [20, 29]
40: Plant response rating, Rice (0 to 100 scale, 0 is no effect and 100 is complete control) (rice (Oryza sativa)) | Wheat plant response rating ([20]; 16 g ai/ha, 0 to 100 scale)
50: Ragweed plant response rating (0 to 100 scale) [5, 28] | Wheat plant response rating (0 to 100 scale) [9, 28] | Ryegrass, Italian plant response rating (0 to 100 scale) [11, 28] | Barnyardgrass plant response rating ([25]; 16 g ai/ha, 0 to 100 scale)
0: Ragweed plant response rating ([17]; 16 g ai/ha, 0 to 100 scale) | Ragweed plant response rating (0-100) [17, 29] | Blackgrass plant response rating ([18]; 16 g ai/ha, 0 to 100 scale) | Kochia plant response rating (kochia (Bassia scoparia) [19]; 16 g ai/ha, 0 to 100 scale) | Kochia plant response rating (0-100) (kochia (Bassia scoparia) [19]; [29]) | Corn plant response rating (corn (Zea mays) [21]; 16 g ai/ha, 0 to 100 scale) | Ryegrass, Italian plant response rating ([22]; 16 g ai/ha, 0 to 100 scale) | Oat, Wild plant response rating ([23]; 16 g ai/ha, 0 to 100 scale) | Oat, Wild plant response rating (0-100) [23, 29] | Foxtail, Green plant response rating ([24]; 16 g ai/ha, 0 to 100 scale) | Soybean plant response rating (0-100) (soybean (Glycine max) [26]; [29])
60: Plant response rating, Barnyardgrass (0 to 100 scale, 0 is no effect and 100 is complete control) [1] | Ryegrass, Italian plant response rating (0-100) [22, 29]
20: Oat, Wild plant response rating (0 to 100 scale) [12, 28]
95: Plant response rating, Ducksalad (0 to 100 scale, 0 is no effect and 100 is complete control) [2]
30: Oat, Wild plant response rating (0-100) [12, 27] | Soybean plant response rating (0 to 100 scale) (soybean (Glycine max) [15]; [28]) | Blackgrass plant response rating (0-100) [18, 29] | Corn plant response rating (0-100) (corn (Zea mays) [21]; [29])
100: Pigweed, Palmer plant response rating (0-100) [4, 27] | Blackgrass plant response rating (0-100) [7, 27] | Corn plant response rating (0-100) (corn (Zea mays) [10]; [27]) | Corn plant response rating (0 to 100 scale) (corn (Zea mays) [10]; [28]) | Barnyardgrass plant response rating (0-100) [14, 27] | Pigweed, Palmer plant response rating (0-100) [16, 29] | Barnyardgrass plant response rating (0-100) [25, 29]
10: Soybean plant response rating (soybean (Glycine max) [26]; 16 g ai/ha, 0 to 100 scale)
90: Pigweed, Palmer plant response rating (0 to 100 scale) [4, 28] | Kochia plant response rating (0-100) (kochia (Bassia scoparia) [8]; [27]) | Kochia plant response rating (0 to 100 scale) (kochia (Bassia scoparia) [8]; [28]) | Wheat plant response rating (0-100) [9, 27] | Foxtail, Green plant response rating (0-100) [13, 27] | Foxtail, Green plant response rating (0 to 100 scale) [13, 28] | Barnyardgrass plant response rating (0 to 100 scale) [14, 28] | Foxtail, Green plant response rating (0-100) [24, 29]
98: Plant response rating, Sedge, Umbrella (0 to 100 scale, 0 is no effect and 100 is complete control) [3]
70: Horseweed plant response rating (0 to 100 scale) [6, 28] | Ryegrass, Italian plant response rating (0-100) [11, 27] | Soybean plant response rating (0-100) (soybean (Glycine max) [15]; [27])
